Data published in patent publication US11247970B2, “Selective inhibition of gluconeogenic activity” (Dana-Farber Cancer Institute, Inc., priority 2017, dated 2022).

Legend:
HFD fed mice [1] = test: Fasting blood glucose in HFD fed mice; assay type: in vivo; conditions: 45 mg/kg I.P., 3 days and again day 4
Method: All mice were purchased from Jackson laboratories and housed under a 12 h light/12 h dark cycle at 22° C. Before handling, mice were allowed to acclimate for at least 1 week in our animal facility. For in vivo studies with DIO mice, males 6-8 weeks old were fed HFD for the indicated time. […] Metformin was re-suspended in the same solution at a 20 mg/ml concentration. […] Metformin was administered via oral gavage. […] Glycemia was measured by tail bleed using a glucometer (OneTouch). For all experiments, age- and body weight-matched animals were used.
Therefore, blood glucose was measured in the fasted state during which the liver plays a major role maintaining glycemia. […] A high fat diet (HFD) fed mice, a dietary model of obesity and T2D, were used.

Lep^ob/ob mice = test: Blood glucose in Lep ob/ob mice with hepatic PGC-1α knockdown; assay type: in vivo; conditions: shPGC-1α adenovirus
Method: Virus was introduced to mice through the tail vein injection. Virus was thawed before injection and the desired amount of virus was diluted with saline to a final volume of 100 μL per mouse. Each mouse was injected with 6*10^7 pfu/g. SR-18292 treatment started on day 5 post infection.
(§1) In addition, liver toxicity, as measured by serum levels of alanine transaminase (ALT), aspartate aminotransferase (AST), lactate dehydrogenase (LDH) and bilirubin, was not observed in mice treated with SR-18292 (Table 6). […] To assess the contribution of PGC-1α in mediating the in vivo effects of SR-18292, hepatic PGC-1α in Lep^ob/ob mice was depleted using shRNA and observed a significant reduction in basal blood glucose concentrations compared to control. […] To fully assess the effects of SR-18292 on whole body glucose homeostasis and insulin resistance, a glucose tolerance test (GTT) and insulin tolerance test (ITT) were performed following the same protocol used to determine fasting blood glucose. […] As expected, insulin levels after GTT were lower in the treated group (FIG. 51). […] To test if SR-18292 chronic treatment will cause similar anti-diabetic effects, mice were treated for a period of 14 days.

HFD-fed mice = test: Hyperinsulinemic-euglycemic clamp; assay type: in vivo
Method: Hyperinsulinemic-euglycemic clamps were performed on mice fed HFD for 16 weeks as previously described with minor modifications (Jurczak et al., 2012). Briefly, an indwelling catheter was surgically implanted in the right jugular vein 7 days prior to study. Three days before study, mice were injected with SR-18292 and vehicle control following the same protocol described above. Mice were fasted overnight prior to clamps and then infused with a fixed amount of insulin [4 mU/(kg-min)] and a variable amount of 20% dextrose to maintain euglycemia. [3-H]glucose was included in the infusate to allow for the calculation of whole-body rates of glucose metabolism.

Pck1 and G6pc promoters = test: Chromatin immunoprecipitation on Pck1 and G6pc in primary hepatocytes; assay type: cell-based, mouse
Method: Primary hepatocytes were fixed in 1% formaldehyde for 10 minutes at room temperature. Crosslinking was quenched by adding glycine to a final concentration of 125 mM and rinsing twice with PBS. Cells were collected in PBS containing protease inhibitors followed by lysis in chromatin immunoprecipitation (ChIP) buffer (50 mM HEPES pH, 7.9; 140 mM NaCl; 1 mM EDTA; 1% Triton X-100; 0.1% NaDOC, 0.1% sodium dodecyl sulfate (SDS) and protease inhibitors). Chromatin was sheared by sonication with a Diagenode Biorupter for three cycles of 5 minutes (30 seconds on, 30 seconds off). Samples were clarified and chromatin immunoprecipitated overnight at 4° C. with the indicated antibody. Immune complexes were recovered with Protein A magnetic beads (Dynabeads; Novex, Life Technologies) preblocked with salmon sperm DNA (Invitrogen, Life Technologies). Following extensive washes, immunoprecipitated DNA was then isolated with a Chelex. Input DNA was prepared from 10% of respective chromatin prior to precipitation. Immunoprecipitated DNA and input DNA were analyzed by quantitative real-time PCR with primers specific for the indicated region. […] To further characterize the SR-18292-mediated inhibition of HNF4α transcriptional activity, chromatin immunoprecipitation (ChIP) assays were performed to examine the promoter occupancy of HNF4α on Pck1 and [MUT] promoters. Primary hepatocytes were treated with glucagon to induce gluconeogenic gene transcripts, and antibodies against HNF4α were used to IP chromatin fragments bound to this protein. […] Epigenetic changes accompany the response to glucagon in the fasted state, including an increase in activating H3K9 acetylation (H3K9Ac) and H3K4 trimethylation (H3K4Me3) of the Pck1 and [MUT] genes.

HFD fed mice [2] = test: Chronic 14 day treatment of HFD mice; assay type: in vivo
Method: FIG. 57 is a plot monitoring body weight over a period of days. Mice fed HFD for 6 weeks were injected daily with SR-18292 for a total of 14 days and body weight was monitored during the treatment.
FIG. 58 is a series of bar graphs monitoring blood glucose. Mice were fasted at day 3 and 13 and fasting blood glucose was measured at day 4 and 14. Fed blood glucose was also measured at day 10. n=10, *P<0.05.
as §1

ob/ob mice = test: Fasting glycemia and liver lipid in leptin deficient ob/ob mice; assay type: in vivo; conditions: diabetic leptin deficient ob/ob mice
[3] = system: CREB, TORC2, Akt phosphorylation; test: Western blot of glucagon and insulin signaling in hepatocytes; assay type: cell-based, mouse
Method: For measurement of acetylation, gene expression and glucose production SR-18292 ([…]) was added to cells overnight and fresh compound was added the following day for additional 3 h before collecting the cells (for total of ˜18 h treatment). Where insulin and glucagon stimulation were performed, the medium was changed to starvation medium (DMEM, 0.2% BSA, 2 mM sodium pyruvate, and 1% penicillin/streptomycin) with fresh compound for the last 3 h and cells were stimulated with either 100 nM insulin or 200 nM glucagon for an extra 1.5 h. For glucose measurements following PGC-1α over expression cells were incubated for the last 3 h in glucose-free medium (phenol-red/glucose free DMEM, 0.2% BSA, 2 mM sodium pyruvate and 20 mM sodium lactate or 10 mM glycerol in case glycerol was used as substrate). For glucose measurements following glucagon stimulation cells were incubated for the last 4 h in the same glucose-free medium that also contained glucagon (200 nM). The glucose level in the medium was measured using a glucose assay kit from Eton Bioscience Inc. by adding […] of assay buffer to […] of medium followed by 15 min incubation at 37° C. Absorbance was measured at 490 nm.

[4] = Serum biochemistry for liver toxicity; assay type: in vivo; conditions: HFD mice
Method: Serum samples were gathered from blood collected by cardiac puncture. Insulin was measured with Ultra Sensitive Mouse Insulin ELISA Kit (Crystal Chem, 90080). Kits used to measure alanine transaminase (EALT-100), aspartate transaminase (EASTR-100), lactate dehydrogenase (DLDH-100) were purchased from Bioassay Systems. Kits used to measure lactate (MAK 064), b-hydroxybutyrate (MAK 041), Triglycerides (TR0100) were purchased from Sigma. Kit used to measure cholesterol (C7510) was purchased from Pointe Scientific. Kit used to measure non-esterified fatty acids was purchased from Wako.
Serum enzymatic activities of alanine transaminase (ALT), aspartate aminotransferase (AST), lactate dehydrogenase (LDH) and bilirubin levels from mice fed high fat diet and treated with SR-18292. n=7.

HFD fed mice [5] = test: Insulin tolerance test (ITT); assay type: in vivo; conditions: HFD 3 weeks
Method: All mice were purchased from Jackson laboratories and housed under a 12 h light/12 h dark cycle at 22° C. Before handling, mice were allowed to acclimate for at least 1 week in our animal facility. For in vivo studies with DIO mice, males 6-8 weeks old were fed HFD for the indicated time. For drug administration, SR-18292 was re-suspended in a 10% DMSO/10% Tween80/80% PBS solution at a final concentration of 6-12 mg/ml. Metformin was re-suspended in the same solution at a 20 mg/ml concentration. SR-18292 was injected via I.P. for 3 days between 4-5 pm and food was removed on day 3 at 5 pm. […] Metformin was administered via oral gavage. […] Insulin tolerance test was performed following the same dosing protocol, but mice were fasted for 4 hours after the forth injection before performing the test. Insulin was injected via I.P. (0.5 U/Kg) and blood glucose was measured every 20 minutes. Glycemia was measured by tail bleed using a glucometer (OneTouch). For all experiments, age- and body weight-matched animals were used. For protein, RNA extracts and biochemistry studies, livers were removed following each experiment and snap frozen in liquid nitrogen. For information on number of animals in each experiment please refer to FIGS. 4, 5 and S5 legends. All studies were performed according to protocols approved by Beth Israel Deaconess Medical Center's Animal Care and Use Committee.

For `Cc1ccc(CN(CC(O)COc2cccc3[nH]ccc23)C(C)(C)C)cc1` (stereo not shown) [SR-18292, 1-((1H-indol-4-yl)oxy)-3-(tert-butyl(4-methylbenzyl)amino)propan-2-ol], the “fasting blood glucose vs vehicle” value (HFD fed mice [1]) was “significantly lower”, the “SR-18292-mediated reduction in blood glucose with reduced hepatic PGC-1α” value (Lep^ob/ob mice) was “blunted SR-18292-mediated reductions in blood glucose concentrations” and the “glucose infusion rate vs vehicle” value (HFD-fed mice; HFD 16 weeks) was “substantially higher”. For the same compound, the peripheral glucose uptake (HFD-fed mice; HFD 16 weeks) was “not due to improved peripheral glucose uptake”, the endogenous glucose production (HFD-fed mice; basal and clamp conditions) was “reduced endogenous glucose production” and the FoxO1 promoter occupancy (Pck1 and G6pc promoters) was “not altered”. The “H3K9Ac and H3K4Me3 marks on the Pck1 gene” value (Pck1 and G6pc promoters) was “reduced H3K9Ac and H3K4Me3 marks”, the “glucagon-induced Pck1 and G6pc promoter occupancy by HNF4α” value (Pck1 and G6pc promoters; glucagon 200 nM) was “significantly reduced” and the “ability to reduce blood glucose” value (HFD fed mice [2]; 14 days daily treatment) was “sustained”. For the same compound, the body weight (HFD fed mice [2]; 14 days daily treatment) was “without resulting in changes in body weight”, the “toxicity by serum ALT and AST, H&E staining of liver, proinflammatory genes” value (HFD fed mice [2]; 14 days treatment) was “did not cause any signs of toxicity” and the “H&E staining of liver slices assessed by pathologist” value (HFD fed mice [2]; after 14 days, n=10) was “no sign of toxicity was observed”. For the same compound, the “liver triglycerides and cholesterol levels” value (HFD fed mice [2]; after 14 days, n=10) was “not altered”, the “serum ALT and AST levels” value (HFD fed mice [2]; after 14 days, n=10) was “not altered” and the “serum lactate, β-hydroxybutyrate and cholesterol levels” value (HFD fed mice [2]; after 14 days, n=10) was “not altered”. The fasting glycemia (ob/ob mice) was “improved fasting glycemia”, the “lipid accumulation in liver” value (ob/ob mice) was “without altering lipid accumulation in liver” and the “glucagon-induced phosphorylation of CREB and dephosphorylation of CRTC2” value ([3]; glucagon 200 nM) was “without disrupting”. The “cell autonomous enhancement of insulin signaling (Akt S473)” value ([3]; insulin 100 nM) was “not observed”, the “liver toxicity by serum ALT, AST, LDH and bilirubin” value [4] was “not observed” and the ALT ([4]; serum, 45 mg/kg, n=7) was 9.21 U/L. For the same compound, the AST ([4]; serum, 45 mg/kg, n=7) was 29.94 U/L, the Bilirubin ([4]; serum, 45 mg/kg, n=7) was 0.33 mg/dL and the LDH ([4]; serum, 45 mg/kg, n=7) was 64.44 IU/L. The response to insulin (HFD fed mice [5]) was “enhanced”.
